Values after ≈ are worked out from the molar mass of the structure shown.
Tests used:
Type in all cases: functional
Providencia sp. = assay: Antibacterial activity against ceftazidime-susceptible Providencia sp. by CLSI M7-A7 broth microdilution method
Staphylococcus aureus [1] = assay: Antibacterial activity against coagulase-negative and oxacillin-resistant Staphylococcus aureus assessed as resistant isolates by CLSI M7-A7 broth microdilution method
Staphylococcus aureus [2] = assay: Antibacterial activity against methicillin-susceptible Staphylococcus aureus assessed as susceptible isolates by CLSI M7-A7 broth microdilution method
Streptococcus pneumoniae [3] = assay: Antibacterial activity against penicillin-susceptible Streptococcus pneumoniae assessed as resistant isolates by CLSI M7-A7 broth microdilution method
Acinetobacter = assay: Antibacterial activity against imipenem-susceptible Acinetobacter assessed as resistant isolates by CLSI M7-A7 broth microdilution method
Staphylococcus aureus [4] = assay: Antibacterial activity against coagulase-negative and oxacillin-susceptible Staphylococcus aureus by CLSI M7-A7 broth microdilution method
Proteus mirabilis = assay: Antibacterial activity against ceftazidime-susceptible Proteus mirabilis assessed as susceptible isolates by CLSI M7-A7 broth microdilution method
Morganella morganii [5] = assay: Antibacterial activity against ceftazidime-susceptible Morganella morganii assessed as susceptible isolates by CLSI M7-A7 broth microdilution method
Citrobacter freundii [6] = assay: Antibacterial activity against ceftazidime-susceptible Citrobacter freundii assessed as susceptible isolates by CLSI M7-A7 broth microdilution method
Enterobacter cloacae [7] = assay: Antibacterial activity against ceftazidime-nonsusceptible Enterobacter cloacae by CLSI M7-A7 broth microdilution method
Streptococcus pyogenes [8] = assay: Antibacterial activity against erythromycin-susceptible Streptococcus pyogenes by CLSI M7-A7 broth microdilution method
Serratia marcescens [9] = assay: Antibacterial activity against ceftazidime-susceptible Serratia marcescens assessed as resistant isolates by CLSI M7-A7 broth microdilution method
Serratia marcescens [10] = assay: Antibacterial activity against ceftazidime-susceptible Serratia marcescens assessed as susceptible isolates by CLSI M7-A7 broth microdilution method
Moraxella catarrhalis = assay: Antibacterial activity against beta lactamase-positive Moraxella catarrhalis assessed as susceptible isolates by CLSI M7-A7 broth microdilution method
Enterobacter cloacae [11] = assay: Antibacterial activity against ceftazidime-nonsusceptible Enterobacter cloacae assessed as susceptible isolates by CLSI M7-A7 broth microdilution method
Klebsiella pneumoniae [12] = assay: Antibacterial activity against ceftazidime-susceptible Klebsiella pneumoniae by CLSI M7-A7 broth microdilution method
Enterococcus faecalis [13] = assay: Antibacterial activity against vancomycin-resistant Enterococcus faecalis by CLSI M7-A7 broth microdilution method
Morganella morganii [14] = assay: Antibacterial activity against ceftazidime-susceptible Morganella morganii by CLSI M7-A7 broth microdilution method
Streptococcus pyogenes [15] = assay: Antibacterial activity against erythromycin-susceptible Streptococcus pyogenes assessed as susceptible isolates by CLSI M7-A7 broth microdilution method
Citrobacter freundii [16] = assay: Antibacterial activity against ceftazidime-nonsusceptible Citrobacter freundii assessed as resistant isolates by CLSI M7-A7 broth microdilution method
Escherichia coli [17] = assay: Antibacterial activity against ceftazidime-susceptible Escherichia coli by CLSI M7-A7 broth microdilution method
Pasteurella multocida = assay: Antibacterial activity against Pasteurella multocida by CLSI M7-A7 broth microdilution method
Enterobacter cloacae [18] = assay: Antibacterial activity against ceftazidime-susceptible Enterobacter cloacae by CLSI M7-A7 broth microdilution method
Streptococcus pyogenes [19] = assay: Antibacterial activity against erythromycin-nonsusceptible Streptococcus pyogenes assessed as susceptible isolates by CLSI M7-A7 broth microdilution method
Streptococcus viridans [20] = assay: Antibacterial activity against penicillin-susceptible Streptococcus viridans assessed as resistant isolates by CLSI M7-A7 broth microdilution method
Staphylococcus aureus [21] = assay: Antibacterial activity against coagulase-negative and oxacillin-susceptible Staphylococcus aureus assessed as susceptible isolates by CLSI M7-A7 broth microdilution method
Citrobacter freundii [22] = assay: Antibacterial activity against ceftazidime-susceptible Citrobacter freundii by CLSI M7-A7 broth microdilution method
Staphylococcus aureus [23] = assay: Antibacterial activity against methicillin-resistant Staphylococcus aureus by CLSI M7-A7 broth microdilution method
Streptococcus viridans [24] = assay: Antibacterial activity against penicillin-susceptible Streptococcus viridans assessed as susceptible isolates by CLSI M7-A7 broth microdilution method
Streptococcus viridans [25] = assay: Antibacterial activity against penicillin-nonsusceptible Streptococcus viridans assessed as susceptible isolates by CLSI M7-A7 broth microdilution method
Morganella morganii [26] = assay: Antibacterial activity against ceftazidime-susceptible Morganella morganii assessed as resistant isolates by CLSI M7-A7 broth microdilution method
Staphylococcus aureus [27] = assay: Antibacterial activity against methicillin-resistant Staphylococcus aureus assessed as susceptible isolates by CLSI M7-A7 broth microdilution method
Enterococcus faecium = assay: Antibacterial activity against vancomycin-resistant Enterococcus faecium by CLSI M7-A7 broth microdilution method
Enterococcus faecalis [28] = assay: Antibacterial activity against vancomycin-susceptible Enterococcus faecalis by CLSI M7-A7 broth microdilution method
Streptococcus agalactiae [29] = assay: Antibacterial activity against erythromycin-nonsusceptible Streptococcus agalactiae assessed as susceptible isolates by CLSI M7-A7 broth microdilution method
Klebsiella pneumoniae [30] = assay: Antibacterial activity against ceftazidime-nonsusceptible Klebsiella pneumoniae assessed as resistant isolates by CLSI M7-A7 broth microdilution method
Klebsiella pneumoniae [31] = assay: Antibacterial activity against ceftazidime-nonsusceptible Klebsiella pneumoniae assessed as susceptible isolates by CLSI M7-A7 broth microdilution method
Escherichia coli [32] = assay: Antibacterial activity against ceftazidime-nonsusceptible Escherichia coli assessed as susceptible isolates by CLSI M7-A7 broth microdilution method
Streptococcus pneumoniae [33] = assay: Antibacterial activity against penicillin-susceptible Streptococcus pneumoniae by CLSI M7-A7 broth microdilution method
Serratia marcescens [34] = assay: Antibacterial activity against ceftazidime-susceptible Serratia marcescens by CLSI M7-A7 broth microdilution method
Enterobacteriaceae = assay: Antibacterial activity against ceftazidime-nonsusceptible Enterobacteriaceae by CLSI M7-A7 broth microdilution method
Streptococcus agalactiae [35] = assay: Antibacterial activity against erythromycin-susceptible Streptococcus agalactiae assessed as susceptible isolates by CLSI M7-A7 broth microdilution method
Citrobacter freundii [36] = assay: Antibacterial activity against ceftazidime-susceptible Citrobacter freundii assessed as resistant isolates by CLSI M7-A7 broth microdilution method
Streptococcus pneumoniae [37] = assay: Antibacterial activity against penicillin-resistant Streptococcus pneumoniae assessed as susceptible isolates by CLSI M7-A7 broth microdilution method

## CO/N=C(\C(=O)N[C@@H]1C(=O)N2C(C(=O)O)=C(CSc3nc(=O)c(O)nn3C)CS[C@H]12)c1csc(N)n1 [CEFTRIAXONE]
Providencia sp.
  MIC: ≤ 0.06 µg/mL
  MIC50: ≤ 0.06 µg/mL
  MIC90: 2 µg/mL (≈ 3.61 µM)
Staphylococcus aureus [1]
  Activity: 22.1%
Staphylococcus aureus [2]
  Activity: 97.1%
Streptococcus pneumoniae [3]
  Activity: 0%
Acinetobacter
  Activity: 0%
Staphylococcus aureus [4]
  MIC50: 1 µg/mL (≈ 1.8 µM)
  MIC90: 4 µg/mL (≈ 7.21 µM)
Proteus mirabilis
  Activity: 96.6%
Morganella morganii [5]
  Activity: 100%
Citrobacter freundii [6]
  Activity: 100%
Enterobacter cloacae [7]
  MIC50: > 16 µg/mL
  MIC90: > 16 µg/mL
Streptococcus pyogenes [8]
  MIC: ≤ 0.015 µg/mL
  MIC50: ≤ 0.015 µg/mL
  MIC90: 0.03 µg/mL (≈ 0.0541 µM)
Serratia marcescens [9]
  Activity: 0%
Serratia marcescens [10]
  Activity: 93.2%
Moraxella catarrhalis
  Activity: 100%
Enterobacter cloacae [11]
  Activity: 8.6%
Klebsiella pneumoniae [12]
  MIC: ≤ 0.06 µg/mL
  MIC50: ≤ 0.06 µg/mL
  MIC90: 0.12 µg/mL (≈ 0.216 µM)
Enterococcus faecalis [13]
  MIC: > 1 µg/mL
Morganella morganii [14]
  MIC: ≤ 0.06 µg/mL
  MIC50: ≤ 0.06 µg/mL
  MIC90: 1 µg/mL (≈ 1.8 µM)
Streptococcus pyogenes [15]
  Activity: 100%
Citrobacter freundii [16]
  Activity: 0%
Escherichia coli [17]
  MIC50: ≤ 0.06 µg/mL
  MIC90: 0.12 µg/mL (≈ 0.216 µM)
Pasteurella multocida
  MIC: ≤ 0.015 µg/mL
  MIC50: ≤ 0.015 µg/mL
  MIC90: ≤ 0.015 µg/mL
Enterobacter cloacae [18]
  MIC50: 0.12 µg/mL (≈ 0.216 µM)
  MIC90: 1 µg/mL (≈ 1.8 µM)
Streptococcus pyogenes [19]
  Activity: 100%
Streptococcus viridans [20]
  Activity: 0%
Staphylococcus aureus [21]
  Activity: 98%
Citrobacter freundii [22]
  MIC50: 0.12 µg/mL (≈ 0.216 µM)
  MIC90: 0.5 µg/mL (≈ 0.902 µM)
Staphylococcus aureus [23]
  MIC50: 16 µg/mL (≈ 28.9 µM)
  MIC90: > 32 µg/mL
Streptococcus viridans [24]
  Activity: 100%
Streptococcus viridans [25]
  Activity: 28.6%
Morganella morganii [26]
  Activity: 0%
Staphylococcus aureus [27]
  Activity: 14.2%
Enterococcus faecium
  MIC: > 32 µg/mL
  MIC50: > 32 µg/mL
  MIC90: > 32 µg/mL
Enterococcus faecalis [28]
  MIC50: > 32 µg/mL
  MIC90: > 32 µg/mL
Streptococcus agalactiae [29]
  Activity: 97.6%
Klebsiella pneumoniae [30]
  Activity: 0%
Klebsiella pneumoniae [31]
  Activity: 12.1%
Escherichia coli [32]
  Activity: 9.5%
Streptococcus pneumoniae [33]
  MIC50: 0.03 µg/mL (≈ 0.0541 µM)
  MIC90: 0.06 µg/mL (≈ 0.108 µM)
Serratia marcescens [34]
  MIC50: 0.25 µg/mL (≈ 0.451 µM)
  MIC90: 4 µg/mL (≈ 7.21 µM)
Enterobacteriaceae
  MIC50: > 16 µg/mL
  MIC90: > 16 µg/mL
Streptococcus agalactiae [35]
  Activity: 100%
Citrobacter freundii [36]
  Activity: 0%
Streptococcus pneumoniae [37]
  Activity: 79.4%

## C[C@@H](O)[C@H]1C(=O)N2C(C(=O)O)=C(SCCNC=N)C[C@H]12 [IMIPENEM ANHYDROUS]
Providencia sp.
  MIC50: 1 µg/mL (≈ 3.34 µM)
  MIC90: 2 µg/mL (≈ 6.68 µM)
Staphylococcus aureus [1]
  Activity: 16.4%
Staphylococcus aureus [2]
  Activity: 99.7%
Streptococcus pneumoniae [3]
  Activity: 0.5%
Acinetobacter
  Activity: 0%
Staphylococcus aureus [4]
  MIC: ≤ 0.12 µg/mL
  MIC50: ≤ 0.12 µg/mL
  MIC90: ≤ 0.12 µg/mL
Proteus mirabilis
  Activity: 100%
Morganella morganii [5]
  Activity: 100%
Citrobacter freundii [6]
  Activity: 100%
Enterobacter cloacae [7]
  MIC50: 0.25 µg/mL (≈ 0.835 µM)
  MIC90: 0.25 µg/mL (≈ 0.835 µM)
Streptococcus pyogenes [8]
  MIC: ≤ 0.015 µg/mL
  MIC50: ≤ 0.015 µg/mL
  MIC90: ≤ 0.015 µg/mL
Serratia marcescens [9]
  Activity: 0%
Serratia marcescens [10]
  Activity: 100%
Enterobacter cloacae [11]
  Activity: 97.1%
Klebsiella pneumoniae [12]
  MIC: 0.12 µg/mL (≈ 0.401 µM)
  MIC50: 0.12 µg/mL (≈ 0.401 µM)
  MIC90: 0.5 µg/mL (≈ 1.67 µM)
Enterococcus faecalis [13]
  MIC50: 1 µg/mL (≈ 3.34 µM)
  MIC90: 2 µg/mL (≈ 6.68 µM)
Morganella morganii [14]
  MIC50: 2 µg/mL (≈ 6.68 µM)
  MIC90: 2 µg/mL (≈ 6.68 µM)
Citrobacter freundii [16]
  Activity: 0%
Escherichia coli [17]
  MIC50: 0.12 µg/mL (≈ 0.401 µM)
  MIC90: 0.25 µg/mL (≈ 0.835 µM)
Pasteurella multocida
  MIC50: 0.25 µg/mL (≈ 0.835 µM)
  MIC90: 2 µg/mL (≈ 6.68 µM)
Enterobacter cloacae [18]
  MIC50: 0.5 µg/mL (≈ 1.67 µM)
  MIC90: 0.5 µg/mL (≈ 1.67 µM)
Staphylococcus aureus [21]
  Activity: 100%
Citrobacter freundii [22]
  MIC50: 0.5 µg/mL (≈ 1.67 µM)
  MIC90: 1 µg/mL (≈ 3.34 µM)
Staphylococcus aureus [23]
  MIC50: 0.25 µg/mL (≈ 0.835 µM)
  MIC90: > 16 µg/mL
Morganella morganii [26]
  Activity: 0%
Staphylococcus aureus [27]
  Activity: 84.6%
Enterococcus faecium
  MIC: > 16 µg/mL
  MIC50: > 16 µg/mL
  MIC90: > 16 µg/mL
Enterococcus faecalis [28]
  MIC50: 1 µg/mL (≈ 3.34 µM)
  MIC90: 2 µg/mL (≈ 6.68 µM)
Klebsiella pneumoniae [30]
  Activity: 10.6%
Klebsiella pneumoniae [31]
  Activity: 80.3%
Escherichia coli [32]
  Activity: 96.8%
Streptococcus pneumoniae [33]
  MIC: ≤ 0.015 µg/mL
  MIC50: ≤ 0.015 µg/mL
  MIC90: ≤ 0.015 µg/mL
Serratia marcescens [34]
  MIC50: 0.5 µg/mL (≈ 1.67 µM)
  MIC90: 1 µg/mL (≈ 3.34 µM)
Enterobacteriaceae
  MIC50: 0.25 µg/mL (≈ 0.835 µM)
  MIC90: 4 µg/mL (≈ 13.4 µM)
Citrobacter freundii [36]
  Activity: 0%
Streptococcus pneumoniae [37]
  Activity: 12.5%

From ChEMBL document CHEMBL1671626, “In vitro profiling of ceftaroline against a collection of recent bacterial clinical isolates from across the United States” (2008)
